The assay has as its system phosphorylated PLCγ2. Description: Phosphorylated PLCγ2 in cynomolgus macaque CD8+ T cells from whole blood in vitro (flow cytometry). The class given is cell-based. Conditions: Macaca fascicularis, T-cell, whole blood from six cynomolgus macaques, 2 hrs 37° C., 2 μg/mL anti-CD3 & anti-CD28 + crosslinker 60 minutes, read-out: Average mean EC50±standard deviation, phosphorylated PLCγ2. As to the method:
To assess these candidate clinical proximal biomarkers of Cbl-b inhibition on T cells, pharmacodynamic analysis was performed. Whole blood was obtained from cynomolgus macaque donors, then incubated with increasing concentrations of Compound 23. The response to Cbl-b inhibition on phosphorylated HS1, ZAP70 and PLCγ2 was measured in CD8^+ T cells using flow cytometry. This technique is highly quantitative and can measure multiple phosphorylation markers in different cell populations within the same sample.
DMSO (Dimethyl sulfoxide) was used to reconstitute Compound 23. Final concentration of DMSO was 0.05% in media for in vitro assays. […]
Stained cells were run on an Attune NxT Acoustic Focusing Flow Cytometer (Thermo Fisher, cat. No. A29004), and data was analyzed using FlowJo (v10.6.1) and GraphPad Prism (v8.00) software. Single lymphocytes were gated for CD8^+ cells (CD45^+/CD8^+) cells, and population frequencies were calculated for each population. The data is quantified by the percent positive. […] As protein becomes phosphorylated the fluorescence increases resulting in a larger fraction of the cells entering that gate. Each population was evaluated for % positive pY759-PLCγ2, pY397-HS1 levels, pY319/Syk (Y352)-ZAP70 levels.
(In general: In flow cytometry, cells or beads pass a laser one at a time.)

As to `C[C@H]1CCCN(Cc2cc3c(c(C(F)(F)F)c2)CN(c2cccc([C@]4(c5nncn5C)C[C@@H](C)C4)c2)C3=O)C1` [Compound 23], the EC50 was 121 ± 37.4 nM.

The term EC50 denotes the concentration giving half of the maximal effect.
